Measured values taken from ChEMBL document CHEMBL4665887, “Identification, Structure-Activity Relationships of Marine-Derived Indolocarbazoles, and a Dual PKCθ/δ Inhibitor with Potent Antipancreatic Cancer Efficacy” (J Med Chem, 2020).
Activity calls are given as the source filed them. The calls are words filed in the database; no cut-off is given here.

What was measured:
[1] = biological target: T1, Protein kinase C theta type (Homo sapiens, UniProt Q04759); assay: Inhibition of PKCtheta (unknown origin) by HTRF assay
Target sequence in this assay (Q04759 whole entry): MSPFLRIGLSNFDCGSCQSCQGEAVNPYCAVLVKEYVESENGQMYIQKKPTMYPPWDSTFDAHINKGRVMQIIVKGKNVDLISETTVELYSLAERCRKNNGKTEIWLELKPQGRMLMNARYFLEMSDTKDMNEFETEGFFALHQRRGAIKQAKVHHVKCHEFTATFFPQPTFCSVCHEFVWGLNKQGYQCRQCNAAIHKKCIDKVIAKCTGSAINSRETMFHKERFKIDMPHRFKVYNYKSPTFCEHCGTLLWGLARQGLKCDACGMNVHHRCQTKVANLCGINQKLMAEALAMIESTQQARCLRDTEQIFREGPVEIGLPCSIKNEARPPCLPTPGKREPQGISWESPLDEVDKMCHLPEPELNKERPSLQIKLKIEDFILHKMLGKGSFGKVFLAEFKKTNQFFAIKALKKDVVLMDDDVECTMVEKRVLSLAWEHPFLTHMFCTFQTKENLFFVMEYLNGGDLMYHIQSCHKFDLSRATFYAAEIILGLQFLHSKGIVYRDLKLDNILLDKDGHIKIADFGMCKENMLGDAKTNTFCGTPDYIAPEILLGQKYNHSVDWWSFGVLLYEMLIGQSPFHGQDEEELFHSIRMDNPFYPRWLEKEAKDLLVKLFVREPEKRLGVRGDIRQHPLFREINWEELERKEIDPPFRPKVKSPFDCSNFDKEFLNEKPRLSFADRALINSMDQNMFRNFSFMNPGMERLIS

[2] = test system: BXPC-3; assay: Reduction in Mcl1 protein expression in human BXPC-3 cells incubated for 24 hrs by Western blot analysis; format: functional, cell-based
[3] = biological target: Protein kinase C delta type (Homo sapiens, UniProt Q05655); assay: Inhibition of PKCdelta phosphorylation at T505 residue in human BXPC-3 cells at 1 uM incubated for 4 hrs by Western blot analysis; format: cell-based
Sequence of Protein kinase C delta type (Q05655 whole entry, looked up): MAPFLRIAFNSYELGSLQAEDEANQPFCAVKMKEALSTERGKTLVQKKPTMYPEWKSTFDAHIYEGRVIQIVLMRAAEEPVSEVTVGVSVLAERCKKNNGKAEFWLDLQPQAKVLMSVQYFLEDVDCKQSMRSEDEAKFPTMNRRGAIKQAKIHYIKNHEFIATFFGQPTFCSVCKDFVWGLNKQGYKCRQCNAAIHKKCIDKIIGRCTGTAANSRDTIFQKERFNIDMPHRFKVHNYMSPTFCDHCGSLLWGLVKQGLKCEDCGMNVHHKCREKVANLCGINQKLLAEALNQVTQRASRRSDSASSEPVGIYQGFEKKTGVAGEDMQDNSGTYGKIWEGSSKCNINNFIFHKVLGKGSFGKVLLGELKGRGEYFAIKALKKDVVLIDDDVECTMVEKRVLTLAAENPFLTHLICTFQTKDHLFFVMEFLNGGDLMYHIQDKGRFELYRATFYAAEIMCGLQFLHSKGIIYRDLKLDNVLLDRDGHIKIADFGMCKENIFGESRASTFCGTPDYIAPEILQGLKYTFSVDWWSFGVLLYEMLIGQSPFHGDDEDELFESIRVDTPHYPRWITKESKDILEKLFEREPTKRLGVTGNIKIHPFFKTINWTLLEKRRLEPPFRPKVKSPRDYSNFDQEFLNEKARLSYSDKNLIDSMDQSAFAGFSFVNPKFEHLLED

[4] = test system: BXPC-3; assay: Reduction in Bcl-2 protein expression in human BXPC-3 cells incubated for 24 hrs by Western blot analysis; format: functional, cell-based
[5] = test system: BXPC-3; assay: Antitumor activity against patient-derived pancreatic cancer cells xenografted in BALB/c mouse model of patient-derived xenograft assessed as increase in cleaved caspase-3 levels at 6 mg/kg, iv dosed once every 2 days for 18 days by Western blot analysis; format: functional, organism-based; conditions: Homo sapiens, time 18.0 day
[6] = test system: BXPC-3; assay: Antitumor activity against patient-derived pancreatic cancer cells xenografted in BALB/c mouse model of patient-derived xenograft assessed as increased numbers of necrotic cells at 6 mg/kg, iv dosed once every 2 days for 18 days by H and E staining based analysis relative to control; format: functional, organism-based; conditions: Homo sapiens, time 18.0 day
[7] = biological target: Inhibitor of nuclear factor kappa-B kinase subunit beta (Homo sapiens) (UniProt O14920); assay: Inhibition of IKKbeta phosphorylation in human BXPC-3 cells at 0.5 uM measured within 1 hr by Western blot analysis; format: cell-based; conditions: time hrs <=1
[8] = test system: BXPC-3; assay: Induction of apoptosis in human BXPC-3 cells assessed as increase in cleaved caspase-3 level at 0.25 uM incubated for 30 mins by Western blot analysis; format: functional, cell-based
[9] = biological target: Protein kinase C zeta type (Homo sapiens) (UniProt Q05513); assay: Inhibition of PKCzeta phosphorylation in human BXPC-3 cells at 1 uM incubated for 4 hrs by Western blot analysis; format: cell-based
[10] = biological target: Protein kinase C alpha type (Homo sapiens) (UniProt P17252); assay: Inhibition of PKCalpha phosphorylation in human BXPC-3 cells at 1 uM incubated for 4 hrs by Western blot analysis; format: cell-based
[11] = test system: BXPC-3; assay: Antitumor activity against patient-derived pancreatic cancer cells xenografted in BALB/c mouse model of patient-derived xenograft assessed as increase in cleaved caspase- levels at 6 mg/kg, iv dosed once every 2 days for 18 days by Western blot analysis; format: functional, organism-based; conditions: Homo sapiens, time 18.0 day
[12] = test system: BXPC-3; assay: Reduction in XIAP protein expression in human BXPC-3 cells incubated for 24 hrs by Western blot analysis; format: functional, cell-based
[13] = biological target: Protein kinase C beta type (Homo sapiens) (UniProt P05771); assay: Inhibition of PKCbeta phosphorylation at S660 residue in human BXPC-3 cells at 1 uM incubated for 4 hrs by Western blot analysis; format: cell-based
Sequence of Protein kinase C beta type (Homo sapiens) (P05771 2-671 limits assumed): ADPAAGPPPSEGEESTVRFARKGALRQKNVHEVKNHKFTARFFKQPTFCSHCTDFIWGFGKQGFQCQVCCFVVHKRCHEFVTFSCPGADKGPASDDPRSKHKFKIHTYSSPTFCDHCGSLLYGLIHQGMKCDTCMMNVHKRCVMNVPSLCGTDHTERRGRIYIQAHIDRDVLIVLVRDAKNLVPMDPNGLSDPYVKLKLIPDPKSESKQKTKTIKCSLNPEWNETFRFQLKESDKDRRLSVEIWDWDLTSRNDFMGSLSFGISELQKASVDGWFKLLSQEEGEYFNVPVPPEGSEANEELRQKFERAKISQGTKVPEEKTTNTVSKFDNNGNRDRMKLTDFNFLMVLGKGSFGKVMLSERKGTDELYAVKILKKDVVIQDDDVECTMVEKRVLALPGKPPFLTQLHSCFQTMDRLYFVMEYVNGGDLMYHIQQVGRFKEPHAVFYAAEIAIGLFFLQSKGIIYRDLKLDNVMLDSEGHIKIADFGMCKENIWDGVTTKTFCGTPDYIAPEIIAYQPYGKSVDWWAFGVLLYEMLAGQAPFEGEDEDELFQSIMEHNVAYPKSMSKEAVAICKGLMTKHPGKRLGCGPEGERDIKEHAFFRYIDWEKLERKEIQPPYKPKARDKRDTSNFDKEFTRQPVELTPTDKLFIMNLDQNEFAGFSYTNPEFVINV

[14] = biological target: Transcription factor p65 (Homo sapiens) (UniProt Q04206); assay: Inhibition of p65 phosphorylation in human BXPC-3 cells at 0.5 uM measured within 1 hr by Western blot analysis; format: cell-based; conditions: time hrs <=1
Sequence of Transcription factor p65 (Homo sapiens) (Q04206 whole entry): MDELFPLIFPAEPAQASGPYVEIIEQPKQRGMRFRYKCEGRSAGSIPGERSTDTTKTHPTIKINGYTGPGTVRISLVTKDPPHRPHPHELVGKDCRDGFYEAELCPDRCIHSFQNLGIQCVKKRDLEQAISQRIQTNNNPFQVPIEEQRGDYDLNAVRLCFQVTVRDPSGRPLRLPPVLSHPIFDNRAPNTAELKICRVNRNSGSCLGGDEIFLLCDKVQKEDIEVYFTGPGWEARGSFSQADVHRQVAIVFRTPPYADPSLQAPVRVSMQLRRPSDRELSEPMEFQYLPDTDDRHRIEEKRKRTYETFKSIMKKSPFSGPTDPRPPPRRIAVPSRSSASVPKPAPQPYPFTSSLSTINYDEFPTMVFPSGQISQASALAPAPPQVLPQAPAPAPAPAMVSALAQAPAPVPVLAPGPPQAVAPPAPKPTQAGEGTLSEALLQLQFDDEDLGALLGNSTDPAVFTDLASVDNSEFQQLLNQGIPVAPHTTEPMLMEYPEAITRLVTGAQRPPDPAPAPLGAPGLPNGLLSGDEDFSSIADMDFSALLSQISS

[15] = biological target: Protein kinase C iota type/zeta type (Homo sapiens) (UniProt P41743+Q05513); assay: Inhibition of PKCzeta/lambda phosphorylation at T410/T403 residue in human BXPC-3 cells at 1 uM incubated for 4 hrs by Western blot analysis; format: cell-based
[16] = biological target: NF-kappa-B inhibitor alpha (Homo sapiens) (UniProt P25963); assay: Inhibition of IkappaB-alpha phosphorylation in human BXPC-3 cells at 0.5 uM measured within 1 hr by Western blot analysis; format: cell-based; conditions: time hrs <=1
Sequence of NF-kappa-B inhibitor alpha (Homo sapiens) (P25963 whole entry): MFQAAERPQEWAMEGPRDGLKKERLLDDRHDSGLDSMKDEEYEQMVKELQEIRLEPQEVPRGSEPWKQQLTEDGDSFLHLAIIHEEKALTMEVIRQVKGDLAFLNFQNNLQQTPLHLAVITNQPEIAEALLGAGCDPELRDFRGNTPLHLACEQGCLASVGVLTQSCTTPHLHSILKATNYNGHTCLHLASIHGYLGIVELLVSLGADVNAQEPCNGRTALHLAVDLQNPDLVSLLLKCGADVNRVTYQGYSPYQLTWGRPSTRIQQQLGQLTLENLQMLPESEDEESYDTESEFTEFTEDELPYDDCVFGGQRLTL

[17] = biological target: PKC alpha and beta-2 (Homo sapiens) (UniProt P17252+P05771); assay: Inhibition of PKCalpha/beta II phosphorylation at T638/T641 residue in human BXPC-3 cells at 1 uM incubated for 4 hrs by Western blot analysis; format: cell-based
Sequence of PKC alpha and beta-2 (Homo sapiens) (P05771 whole entry, looked up): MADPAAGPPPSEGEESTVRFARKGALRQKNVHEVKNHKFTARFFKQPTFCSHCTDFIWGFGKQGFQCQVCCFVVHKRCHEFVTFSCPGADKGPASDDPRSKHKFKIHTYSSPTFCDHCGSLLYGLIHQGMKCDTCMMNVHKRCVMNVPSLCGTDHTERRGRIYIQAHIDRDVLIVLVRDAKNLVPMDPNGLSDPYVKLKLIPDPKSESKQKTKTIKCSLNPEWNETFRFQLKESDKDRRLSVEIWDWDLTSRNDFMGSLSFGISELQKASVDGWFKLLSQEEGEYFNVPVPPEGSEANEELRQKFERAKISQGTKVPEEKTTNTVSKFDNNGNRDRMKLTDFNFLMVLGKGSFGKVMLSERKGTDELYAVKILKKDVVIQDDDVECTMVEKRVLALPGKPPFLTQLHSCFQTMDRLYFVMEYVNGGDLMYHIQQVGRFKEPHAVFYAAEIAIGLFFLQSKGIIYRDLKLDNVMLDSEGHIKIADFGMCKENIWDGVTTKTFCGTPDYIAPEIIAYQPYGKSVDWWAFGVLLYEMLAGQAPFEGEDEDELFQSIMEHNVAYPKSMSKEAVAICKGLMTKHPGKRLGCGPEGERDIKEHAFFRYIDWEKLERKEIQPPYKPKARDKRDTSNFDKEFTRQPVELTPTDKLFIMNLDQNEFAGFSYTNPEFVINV

[18] = test system: BXPC-3; assay: Reduction in Bcl-XL protein expression in human BXPC-3 cells incubated for 24 hrs by Western blot analysis; format: functional, cell-based
[19] = test system: BXPC-3; assay: Induction of apoptosis in human BXPC-3 cells assessed as increase in cleaved caspase-9 level at 0.25 uM incubated for 30 mins by Western blot analysis; format: functional, cell-based
[20] = biological target: Protein kinase C beta type (Homo sapiens) (UniProt P05771); assay: Inhibition of PKC(pan)/beta II phosphorylation at S660 residue in human BXPC-3 cells at 1 uM incubated for 4 hrs by Western blot analysis; format: cell-based
[21] = test system: BXPC-3; assay: Antitumor activity against patient-derived pancreatic cancer cells xenografted in BALB/c mouse model of patient-derived xenograft assessed as reduction in p-PKCdelta protein levels at 6 mg/kg, iv dosed once every 2 days for 18 days by Western blot analysis; format: functional, organism-based; conditions: Homo sapiens, time 18.0 day
[22] = test system: BXPC-3; assay: Induction of apoptosis in human BXPC-3 cells assessed as increase in cleaved caspase-7 level at 0.25 uM incubated for 30 mins by Western blot analysis; format: functional, cell-based
[23] = biological target: T1, Protein kinase C theta type; assay: Inhibition of PKCtheta phosphorylation at T538 residue in human BXPC-3 cells at 0.25 uM incubated for 4 hrs by Western blot analysis; format: cell-based
Target sequence in this assay (Q04759 whole entry, looked up): as the sequence (Q04759 whole entry) above

[24] = biological target: Inhibitor of nuclear factor kappa-B kinase subunit alpha (Homo sapiens) (UniProt O15111); assay: Inhibition of IKKalpha phosphorylation in human BXPC-3 cells at 0.5 uM measured within 1 hr by Western blot analysis; format: cell-based; conditions: time hrs <=1
[25] = biological target: Protein kinase C iota type (Homo sapiens) (UniProt P41743); assay: Inhibition of PKClambda phosphorylation in human BXPC-3 cells at 1 uM incubated for 4 hrs by Western blot analysis; format: cell-based
[26] = test system: BXPC-3; assay: Induction of apoptosis in human BXPC-3 cells incubated for 24 hrs by PI and annexin V-FITC staining based flow cytometry; format: functional, cell-based
[27] = test system: BXPC-3; assay: Induction of apoptosis in human BXPC-3 cells assessed as increase in cleaved PARP level at 0.25 uM incubated for 30 mins by Western blot analysis; format: functional, cell-based
[28] = test system: RKO; assay: Cytotoxicity in human RKO cells assessed as reduction in cell viability incubated for 24 hrs by CCK8 assay; format: functional, cell-based
[29] = test system: ASPC1; assay: Cytotoxicity in human ASPC1 cells assessed as reduction in cell viability incubated for 24 hrs by CCK8 assay; format: functional, cell-based; conditions: ASPC1, 24 h
[30] = test system: NCI-H1299; assay: Cytotoxicity in human NCI-H1299 cells assessed as reduction in cell viability incubated for 24 hrs by CCK8 assay; format: functional, cell-based; conditions: NCI-H1299, 24 h
[31] = test system: NCI-H1975; assay: Cytotoxicity in human NCI-H1975 cells assessed as reduction in cell viability incubated for 24 hrs by CCK8 assay; format: functional, cell-based; conditions: NCI-H1975, 24 h
[32] = test system: PC-9; assay: Cytotoxicity in human PC-9 cells assessed as reduction in cell viability incubated for 24 hrs by CCK8 assay; format: functional, cell-based; conditions: PC-9, 24 h
[33] = test system: BXPC-3; assay: Cytotoxicity in human BXPC-3 cells assessed as reduction in cell viability incubated for 24 hrs by CCK8 assay; format: functional, cell-based; conditions: BXPC-3, 24 h
[34] = test system: A549; assay: Cytotoxicity in human A549 cells assessed as reduction in cell viability incubated for 24 hrs by CCK8 assay; format: functional, cell-based; conditions: A549, 24 h
[35] = test system: MGC-803; assay: Cytotoxicity in human MGC-803 cells assessed as reduction in cell viability incubated for 24 hrs by CCK8 assay; format: functional, cell-based; conditions: MGC-803, 24 h

Structure (SMILES): CNC(=O)C[C@H]1O[C@@](C)(C(=O)OC)n2c3ccccc3c3c4c(c5c6ccccc6n1c5c32)C(=O)NC4
- IC50 [1]: > 2500 nM

Structure (SMILES): COC(=O)[C@@]1(OC)C[C@H]2O[C@]1(C)n1c3ccccc3c3c4c(c5c6ccccc6n2c5c31)C(=O)NC4
- IC50 [1]: 520 nM

Structure (SMILES): C[C@]12O[C@H](C[C@]1(O)C(=O)O)n1c3ccccc3c3c4c(c5c6ccccc6n2c5c31)C(=O)NC4=O
- IC50 [1]: 1860 nM

Structure (SMILES): C[C@]12O[C@H](C[C@]1(O)C(=O)O)n1c3ccccc3c3c4c(c5c6ccccc6n2c5c31)CNC4=O
- IC50 [1]: 5590 nM

Structure (SMILES): COC(=O)[C@H]1C[C@H]2O[C@]1(C)n1c3ccccc3c3c4c(c5c6ccccc6n2c5c31)C(=O)NC4
- IC50 [1]: 1680 nM

Structure (SMILES): CN[C@]1(C(=O)OC)C[C@H]2O[C@]1(C)n1c3ccccc3c3c4c(c5c6ccccc6n2c5c31)C(=O)NC4
- IC50 [1]: > 2500 nM

Structure (SMILES): CO[C@@H]1C(C)(O)O[C@@H]2C[C@@]1(OC)n1c3ccccc3c3c4c(c5c6ccccc6n2c5c31)C(=O)NC4 (stereo partly specified)
- IC50 [1]: > 2500 nM

Structure (SMILES): COC(=O)c1cccc2c1NC1(C[C@H]3O[C@]1(C)n1c4ccccc4c4c5c(c6c7ccccc7n3c6c41)C(=O)NC5)C(=O)O2 (stereo partly specified)
- IC50 [1]: > 2500 nM

Structure (SMILES): COC1=C(C)O[C@@H]2C[C@@]1(OC)n1c3ccccc3c3c4c(c5c6ccccc6n2c5c31)C(=O)NC4
- IC50 [1]: 370 nM

Structure (SMILES): CN[C@@H]1C[C@H]2O[C@@](C)([C@@H]1OC)n1c3ccccc3c3c4c(c5c6ccccc6n2c5c31)C(=O)NC4=O (stereo in doubt; 14)
- IC50 [1]: 17 nM

Structure (SMILES): CN[C@@H]1C[C@H]2O[C@@](C)([C@@H]1OC)n1c3ccccc3c3c4c(c5c6ccccc6n2c5c31)C(=O)NC4=O (stereo in doubt; 15)
- Activity [2]: Dose-dependent effect
- inhibition [3]: Active
- Activity [4]: Dose-dependent effect
- Activity [5]: Active
- Activity [6]: Active
- inhibition [7]: Active
- Activity [8]: Active
- inhibition [9]: inactive
- inhibition [10]: inactive
- Activity [11]: Active
- Activity [12]: Dose-dependent effect
- inhibition [13]: inactive
- inhibition [14]: Active
- inhibition [15]: inactive
- inhibition [16]: Active
- inhibition [17]: inactive
- Activity [18]: Dose-dependent effect
- Activity [19]: Active
- inhibition [20]: inactive
- Activity [21]: Active
- Activity [22]: Active
- inhibition [23]: Active
- inhibition [24]: Active
- inhibition [25]: inactive
- Activity [26]: Dose-dependent effect
- Activity [27]: Active

Structure (SMILES): CN1CCN(c2nc(C3=C(c4c[nH]c5ccccc45)C(=O)NC3=O)c3ccccc3n2)CC1 [SOTRASTAURIN]
- IC50 [28]: > 3200 nM
- IC50 [29]: > 3200 nM
- IC50 [30]: > 3200 nM
- IC50 [31]: > 3200 nM
- IC50 [32]: > 3200 nM
- IC50 [33]: > 3200 nM
- IC50 [34]: > 3200 nM
- IC50 [35]: > 3200 nM

Structure (SMILES): O=C1NC(=O)c2c1c1c3ccccc3[nH]c1c1[nH]c3ccccc3c21 [STAUROSPORINE AGLYCON]
- IC50 [1]: > 2500 nM

Structure (SMILES): O=C1NCc2c1c1c3ccccc3[nH]c1c1[nH]c3ccccc3c21 [STAUROSPORINONE]
- IC50 [1]: > 2500 nM
